The results in this text go back to US12662676B2, “Aptamer nucleic acid molecule, and complex and application thereof” (EAST CHINA UNIVERSITY OF SCIENCE AND TECHNOLOGY, priority 2019, dated 2026).

One data set can be described thus: Fluorescence activation of III-3 fluorophore by Pepper aptamers and mutants. The data set is classed as biochemical. The settings on record: Activation of III-3 by Pepper mutants with multiple mutations; 1 μM III-3 with 5 μM RNA. The protocol:
Preparation of Pepper or Pepper mutant aptamer according to the commonly used experimental method (1). 5 μM aptamer and 1 μM fluorophore were incubated in the detection buffer (40 mM HEPES, pH 7.4, 125 mM KCl, 5 mM MgCl2, 5% DMSO). The maximal excitation and emission peaks of the aptamer-fluorophore complexes were determined using a Synergy Neo2 multifunctional microplate reader. The fluorescence intensities of the aptamer-fluorophore complexes at the maximal excitation and emission peaks were determined using a Synergy Neo2 multifunctional microplate reader. The control sample (1 μM fluorophore without aptamer) was also measured under the same conditions. Then the ratios of fluorescence intensity were calculated. For example, the fluorescence maximal excitation and emission peaks of the complex of 5 μM F30-Pepper-2 and 1 μM III-3 fluorophore are 485 nm and 530 nm, respectively. The fluorescence intensity of the complex at 485±10 nm excitation and 530 nm±10 nm emission was 36,000, the fluorescence intensity of the control sample (1 μM III-3 fluorophore only) under the same detection conditions was 10. Thus, the activation ratio of F30-Pepper-2 aptamer on III-3 fluorophore was 3,600-fold.
In order to detect the fluorescence activation of III-3 fluorophore by different Pepper mutant, the Pepper-1 sequence in F30-Pepper-1 was mutated according to Table 1. […] 1 μM III-3 was incubated with […] RNA and their fluorescence activation folds were determined according to the commonly used experimental method (5). […] In summary, many Pepper mutants containing single and multiple mutants still retain the ability to activate the fluorescence of III-3 fluorophore.
In order to detect the activation of III-3 by modified Pepper, base-modified Pepper-3 was synthesized (SEQ ID NO: 6, the underlined nucleotides in […] GGCC contain deoxyribonucleotide bases) and Pepper-4 (SEQ ID NO: 7, the underlined nucleotides in […] GGGCC contain 2′-F modification) (synthesized by Shanghai GenePharma Co., Ltd), which contain deoxyribonucleotides replacement (shaded bases in FIG. 5A) or 2′-F modification (shaded bases in FIG. 5B) in the stem-loop region of Pepper. Detection of the fluorescence activation of III-3 fluorophore by these modified Peppers was carried out according to the commonly used experimental method (5).
Consider “C2A/G31U/G10A/C30U: F30-Pepper-1 mutant aptamer (NACAAUCGUAGCGUGUCGNNNACUGGCGCUUN; Pepper mutant embedded in F30 scaffold, chemistry not given here, further chemistry not given here)”, for which the Activation folds is listed as 3105 folds.

For the substance “C2A/G31U/G10C/C30G: F30-Pepper-1 mutant aptamer (NACAAUCGUCGCGUGUCGNNNACUGGCGCGUN; Pepper mutant embedded in F30 scaffold, chemistry not given here, further chemistry not given here)”, the Activation folds was 3475 folds.

Take “C2A/G31U/G10U/C30A: F30-Pepper-1 mutant aptamer (NACAAUCGUUGCGUGUCGNNNACUGGCGCAUN; Pepper mutant embedded in F30 scaffold, chemistry not given here, further chemistry not given here)”: the Activation folds worked out at 3024 folds.

Consider “C2A/G31U: F30-Pepper-1 mutant aptamer (NACAAUCGUGGCGUGUCGNNNACUGGCGCCUN; Pepper mutant embedded in F30 scaffold, chemistry not given here, further chemistry not given here)”, for which the Activation folds amounted to 3365 folds.

Turning to “C2G/G31C/G10A/C30U/U6G/C27U: F30-Pepper-1 mutant aptamer (NGCAAGCGUAGCGUGUCGNNNACUGGUGCUCN; RNA, backbone, methylation of C and the base at N not given here; Pepper aptamer mutant embedded in F30 scaffold)”, the Activation folds was 758 folds.

As to “C2G/G31C/G10A/C30U: F30-Pepper-1 mutant aptamer (NGCAAUCGUAGCGUGUCGNNNACUGGCGCUCN; Pepper mutant embedded in F30 scaffold, chemistry not given here, further chemistry not given here)”, the Activation folds is recorded as 2365 folds.

As for “C2G/G31C/G10C/C30G/U6G/C27U: F30-Pepper-1 mutant aptamer (NGCAAGCGUCGCGUGUCGNNNACUGGUGCGCN; RNA, backbone, methylation of C and the base at N not given here; Pepper aptamer mutant embedded in F30 scaffold)”, the Activation folds is reported as 736 folds.

Turning to “C2G/G31C/G10C/C30G: F30-Pepper-1 mutant aptamer (NGCAAUCGUCGCGUGUCGNNNACUGGCGCGCN; Pepper mutant embedded in F30 scaffold, chemistry not given here, further chemistry not given here)”, the Activation folds is 2684 folds.

Turning to “C2G/G31C/G10U/C30A: F30-Pepper-1 mutant aptamer (NGCAAUCGUUGCGUGUCGNNNACUGGCGCACN; Pepper mutant embedded in F30 scaffold, chemistry not given here, further chemistry not given here)”, the Activation folds worked out at 3125 folds.

In the case of “C2U/G31A/G10C/C30G: F30-Pepper-1 mutant aptamer (NUCAAUCGUCGCGUGUCGNNNACUGGCGCGAN; Pepper mutant embedded in F30 scaffold, chemistry not given here, further chemistry not given here)”, the Activation folds turned out to be 2986 folds.

With “C2U/G31A/G10U/C30A: F30-Pepper-1 mutant aptamer (NUCAAUCGUUGCGUGUCGNNNACUGGCGCAAN; Pepper mutant embedded in F30 scaffold, chemistry not given here, further chemistry not given here)”, the Activation folds worked out at 2583 folds.

For “C2U/G31A: F30-Pepper-1 mutant aptamer (NUCAAUCGUGGCGUGUCGNNNACUGGCGCCAN; Pepper mutant embedded in F30 scaffold, chemistry not given here, further chemistry not given here)”, the Activation folds amounted to 3256 folds.

The data set is the same for the next values; noted with them: Activation of III-3 by Pepper mutants with single mutation; 1 μM III-3 with 5 μM RNA.
Take “A4C: F30-Pepper-1 mutant aptamer (NCCCAUCGUGGCGUGUCGNNNACUGGCGCCGN; Pepper mutant embedded in F30 scaffold, chemistry not given here, further chemistry not given here) [Compound A4C]”: the Activation folds came to 2772 folds.

Turning to “A5C: F30-Pepper-1 mutant aptamer (NCCACUCGUGGCGUGUCGNNNACUGGCGCCGN; Pepper mutant embedded in F30 scaffold, chemistry not given here, further chemistry not given here) [Compound A5C]”, the Activation folds worked out at 2628 folds.

With “C3A: F30-Pepper-1 mutant aptamer (NCAAAUCGUGGCGUGUCGNNNACUGGCGCCGN; RNA, backbone, methylation of C and the base at N not given here; Pepper aptamer mutant embedded in F30 scaffold) [Compound C3A]”, the Activation folds was found to be 2484 folds.

Take “C3U: F30-Pepper-1 mutant aptamer (NCUAAUCGUGGCGUGUCGNNNACUGGCGCCGN; RNA, backbone, methylation of C and the base at N not given here; Pepper aptamer mutant embedded in F30 scaffold) [Compound C3U]”: the Activation folds is listed as 2016 folds.

With “C7A: F30-Pepper-1 mutant aptamer (NCCAAUAGUGGCGUGUCGNNNACUGGCGCCGN; RNA, backbone, methylation of C and the base at N not given here; Pepper aptamer mutant embedded in F30 scaffold) [Compound C7A]”, the Activation folds was determined as 1044 folds.

Take “C7U: F30-Pepper-1 mutant aptamer (NCCAAUUGUGGCGUGUCGNNNACUGGCGCCGN; RNA, backbone, methylation of C and the base at N not given here; Pepper aptamer mutant embedded in F30 scaffold) [Compound C7U]”: the Activation folds was found to be 2268 folds.

With “C12U: F30-Pepper-1 mutant aptamer (NCCAAUCGUGGUGUGUCGNNNACUGGCGCCGN; Pepper mutant embedded in F30 scaffold, chemistry not given here, further chemistry not given here) [Compound C12U]”, the Activation folds came to 2268 folds.

As for “C27G: F30-Pepper-1 mutant aptamer (NCCAAUCGUGGCGUGUCGNNNACUGGGGCCGN; Pepper mutant embedded in F30 scaffold, chemistry not given here, further chemistry not given here) [Compound C27G]”, the Activation folds was determined as 1875 folds.

“C27U: F30-Pepper-1 mutant aptamer (NCCAAUCGUGGCGUGUCGNNNACUGGUGCCGN; Pepper mutant embedded in F30 scaffold, chemistry not given here, further chemistry not given here) [Compound C27U]”: the Activation folds is recorded as 3158 folds.

On to “C29G: F30-Pepper-1 mutant aptamer (NCCAAUCGUGGCGUGUCGNNNACUGGCGGCGN; Pepper mutant embedded in F30 scaffold, chemistry not given here, further chemistry not given here) [Compound C29G]”, for which the Activation folds was 2145 folds.

Turning to “C29U: F30-Pepper-1 mutant aptamer (NCCAAUCGUGGCGUGUCGNNNACUGGCGUCGN; Pepper mutant embedded in F30 scaffold, chemistry not given here, further chemistry not given here) [Compound C29U]”, the Activation folds is given as 1437 folds.

With “C30A: F30-Pepper-1 mutant aptamer (NCCAAUCGUGGCGUGUCGNNNACUGGCGCAGN; RNA, backbone, methylation of C and the base at N not given here; Pepper aptamer mutant embedded in F30 scaffold) [Compound C30A]”, the Activation folds was 1596 folds.

For the substance “C30U: F30-Pepper-1 mutant aptamer (NCCAAUCGUGGCGUGUCGNNNACUGGCGCUGN; RNA, backbone, methylation of C and the base at N not given here; Pepper aptamer mutant embedded in F30 scaffold) [Compound C30U]”, the Activation folds is 2587 folds.

Regarding “G11A: F30-Pepper-1 mutant aptamer (NCCAAUCGUGACGUGUCGNNNACUGGCGCCGN; RNA, backbone, methylation of C and the base at N not given here; Pepper aptamer mutant embedded in F30 scaffold) [Compound G11A]”, the Activation folds was 1526 folds.
